Structures can show the parent of a compound that is named as a salt. Where two headings read alike, the source gives them in different places.
Key:
[1] = cited from earlier work; for logP: as listed in table of actives by hydrotrope class; for log P: list of suitable active agents
[2] = In vitro single hydrotrope permeability experiments, coated artificial membranes (Franz cell); format: in vitro ADME
Experimental: The solutions thus contain the exact same concentration of active agent in the presence or absence of hydrotrope. The samples may then be tested for permeability through an artificial membrane under identical conditions so that the effect of the hydrotrope on the permeability of the active can be assessed.
Regenerated cellulose membrane filters are coated with lecithin in dodecane for permeation experiments. […] Air bubbles are removed before donor chamber is clamped. The filter is incubated for 1 h and any excess lecithin solution is then removed. All samples are continuously stirred on a magnetic plate at 300 rpm for duration of pre-incubation and subsequent permeation experiment.
After membrane preparation and equilibration, 240 uL each of formulation at buffer pH 6.8 are added to the donor chamber.

[3] = In vivo studies in rabbits, buccal administration, blood PK; parameters: species or system rabbits (Oryctolagus cuniculus) New Zealand White; settings: rabbit, buccal single dose 20 mg, 2.5% caffeine and 7.5% nicotinamide (F4) in comparison to the Base formulation, FIG. 14
Experimental: Ten male rabbits (Oryctolagus cuniculus) Strain New Zealand White (NZW) aged 8-12 weeks were delivered 5 days prior to the experiment for acclimatisation. The animals were kept in a controlled environment (targeted ranges: temperature 21±3° C., humidity 30-70%), with a light/dark cycle each of 12 hours, and under barrier (quarantine) conditions. Temperature and relative humidity was monitored continuously throughout the study duration. Feed consisted of Rabbit and Guinea Pig pellets. Municipal town water was supplied ad libitum. Dietary enrichment was provided during the acclimation period in the form of fresh fruit and vegetables. Enrichment items were not provided following randomisation into study groups and during dose administration.
Prior to dose administration, a total of ten male NZW rabbits were randomized into two groups of five based on body weight. Each animal group was allocated to receive a different sildenafil Formulation (either sildenafil Formulation 4 (F4) or sildenafil Base formulation (see Example 2)). […]
Portions of whole blood (400 μL) were collected into K2EDTA blood tubes then centrifuged and the resulting […] prior to analysis by LC-MS/MS. Peak concentration in blood (Cmax), Time to reach Cmax (Tmax), half-life (t1/2) and area under curve (AUC) were calculated.

porcine buccal mucosa = assay: Ex vivo permeability experiments, porcine buccal membranes in Franz cells; format: in vitro ADME, domestic pigs (Sus scrofa domestica)
Experimental: Buccal tissue from domestic pigs (Sus scrofa domestica) were obtained from a local abattoir directly after slaughter and immediately placed on ice. Within 2 hours of collection, tissue is prepared for delivery experiments. For permeation experiments tissue is placed in pH 6.8 PBS and epithelium separated from the connective tissue using surgical dissection or by contact in solution (pH 6.8 PBS) heated to 65° C. for 60 seconds. Surgical dissection is preferred method for maintaining intact epithelia with minimal impact on integrity which can occur with heating. After isolation, tissue is placed on Franz cell receiver chamber filled with PBS at pH optimised for permeant solubility and containing micro-stirring bar. Air bubbles are removed before donor chamber is clamped. The exposed epithelial surface is pre-incubated in pH 6.8 PBS in air incubator heated to 37° C. for minimum 15 minutes to equilibrate to temperature. All samples are continuously stirred on a magnetic plate at 300 rpm for duration of pre -incubation and subsequent permeation experiment. After equilibration, the donor chamber buffer is removed by pipette and replaced with active agent solution to be tested. […] At time 0 samples of 200 ul is removed from receiver chamber and 200 ul volume replaced with buffer. Samples taken at timed intervals (standard 15, 30, 60 minutes) are 200 ul volumes removed from side arm of receiver chamber using gel-loading pipette tips. Removed samples are placed in HPLC tubes for HPLC analysis. After each sample is taken the 200 ul volume is replaced with PBS […] buffer to maintain constant volume in receiver chamber (which will dilute slightly each subsequent sample).

[4] = as listed with results of FIGS. 3-9
[5] = single hydrotrope screen, formulation at buffer pH 6.8, same active concentration with and without hydrotrope
[6] = formulated with Class A hydrotrope caffeine, sweeteners and flavours vs same formulation minus the hydrotrope content, FIG. 13
[7] = sildenafil citrate formulations containing hydrotropes (Table 4) vs Base, FIGS. 11A and 11B

SMILES	logP [1]	log P or log D [1, 4]	log P [1]	penetration through an artificial membrane in the presence of various hydrotropes (most effective hydrotrope) [2, 5]	other results
Cc1ccc(-c2nc3ccc(C)cn3c2CC(=O)N(C)C)cc1 [Zolpidem tartrate, zolpidem tartrate]	Zolpidem tartrate (logP 1.2	1.2	1.2	citric acid most effective	
CCCc1nn(C)c2c(=O)[nH]c(-c3cc(S(=O)(=O)N4CCN(C)CC4)ccc3OCC)nc12 [Sildenafil citrate, sildenafil citrate]					log D ([1]; pH 7): 1.6; log P or log D ([1]; pH 7): 1.6; bioavailability of sildenafil [3]: marked increase
O=C(O)Cc1ccccc1Nc1c(Cl)cccc1Cl [Diclofenac sodium, diclofenac sodium]					log P or log D ([1]; hydroalcoholic solution): 4.75; penetration through an artificial membrane in the presence of various hydrotropes (most effective hydrotrope) ([2]; hydroalcoholic solution): caffeine most effective
CN(C)CCOC(C)(c1ccccc1)c1ccccn1 (stereo not shown) [Doxylamine succinate, doxylamine succinate]	2.96	2.9		benzoic acid most effective	early permeation (porcine buccal mucosa; [6]): does not affect; total permeation (porcine buccal mucosa; [6]): increases total permeation
CNS(=O)(=O)Cc1ccc2[nH]cc(CCN(C)C)c2c1 [Sumatriptan succinate, sumatriptan succinate]	Sumatriptan succinate (logP 0.93	1.7	0.93	benzoic acid most effective	log D ([1]; pH 6): 1.7
Cn1c(=O)c2c(ncn2C)n(C)c1=O [caffeine]					effect on early permeation (porcine buccal mucosa; [7]): limited effect; effect on total permeation (porcine buccal mucosa; [7]): increases total permeation
Cc1nccn1CC1CCc2c(c3ccccc3n2C)C1=O (stereo not shown) [Ondansetron HCl, ondansetron hydrochloride]	Ondansetron HCl (logP 2.4	2.4	2.4	nicotinamide or caffeine most effective	hydrotrope class giving the greatest increases in permeability [2]: Class A hydrotropes
CC(C)Cc1ccc(C(C)C(=O)O)cc1 (stereo not shown) [Ibuprofen, ibuprofen]		3.5		no improvement	

— US11458201B2, “Mucosal active agent delivery” (Suda Ltd., priority 2016, dated 2022)
